Measured values as given in patent US20260248918A1, “COMPOSITIONS AND METHODS OF SUPPRESSING AVERSIVENESS OF PHARMACEUTICALS AND INGESTIBLE MATERIALS” (Monell Chemical Senses Center, priority 2019, published 2026).

Columns and labels:
[1] = biological target: T1, TAS2R1 (Homo sapiens, UniProt Q9NYW7); assay: Blocking of TAS2R1 response to the APIs; format: cell-based; settings: data not shown
T1 sequence (Q9NYW7 1-299): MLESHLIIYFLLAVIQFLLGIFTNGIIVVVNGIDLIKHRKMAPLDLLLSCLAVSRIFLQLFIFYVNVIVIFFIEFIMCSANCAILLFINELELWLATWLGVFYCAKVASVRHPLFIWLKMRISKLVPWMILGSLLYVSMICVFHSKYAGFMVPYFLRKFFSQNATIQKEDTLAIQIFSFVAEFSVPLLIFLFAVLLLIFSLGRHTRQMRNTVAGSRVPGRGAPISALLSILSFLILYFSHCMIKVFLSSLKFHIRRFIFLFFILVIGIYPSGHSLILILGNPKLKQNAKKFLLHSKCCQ

[2] = tested on: Benzodiazepine receptor (gamma-aminobutyric acid receptor subunit); settings: rat cortical membranes; cited from earlier work
[3] = biological target: T2, glucocorticoid receptor (Homo sapiens, UniProt P04150); settings: human MDA-kb2 cells; cited from earlier work
T2 construct: glucocorticoid receptor in human MDA-kb2 cells; endogenous in cells; host or cells: MDA-kb2
T2 sequence (P04150 1-777): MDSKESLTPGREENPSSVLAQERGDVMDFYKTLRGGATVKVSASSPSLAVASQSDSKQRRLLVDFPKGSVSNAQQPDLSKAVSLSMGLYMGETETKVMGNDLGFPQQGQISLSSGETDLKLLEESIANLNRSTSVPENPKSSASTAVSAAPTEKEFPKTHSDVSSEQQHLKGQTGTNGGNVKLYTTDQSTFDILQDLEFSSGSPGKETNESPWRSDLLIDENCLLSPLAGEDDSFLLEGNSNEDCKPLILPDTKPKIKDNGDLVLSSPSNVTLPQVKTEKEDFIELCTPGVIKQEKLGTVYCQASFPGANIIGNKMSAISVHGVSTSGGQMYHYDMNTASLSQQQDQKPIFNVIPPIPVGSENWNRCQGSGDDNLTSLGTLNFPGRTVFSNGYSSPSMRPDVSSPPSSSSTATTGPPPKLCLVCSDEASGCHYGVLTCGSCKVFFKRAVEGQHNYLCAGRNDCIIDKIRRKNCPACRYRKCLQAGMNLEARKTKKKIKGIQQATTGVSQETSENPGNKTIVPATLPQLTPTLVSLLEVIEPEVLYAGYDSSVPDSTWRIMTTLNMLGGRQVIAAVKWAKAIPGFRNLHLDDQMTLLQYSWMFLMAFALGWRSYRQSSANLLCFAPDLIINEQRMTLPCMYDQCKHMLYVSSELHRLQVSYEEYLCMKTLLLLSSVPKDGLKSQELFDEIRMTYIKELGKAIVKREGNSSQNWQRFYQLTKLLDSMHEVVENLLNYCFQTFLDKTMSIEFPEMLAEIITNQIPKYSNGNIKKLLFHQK

Inhibition of TAS2R1 ([1]; FIG. 5A legend (Piperaquine)): did not inhibit | Inhibition of the response of TAS2R1 to TAF ([1]; FIG. 7B legend): did not inhibit
SMILES: Cc1ccc2oc(-c3ccccc3)cc(=O)c2c1 [6-methylflavone]
In vitro affinity against Benzodiazepine receptor binding [2]: active | Antagonist activity at glucocorticoid receptor [3]: antagonist activity
